Like-named read-outs stand apart in the source and are kept apart here.
Test system: M. tuberculosis Clinical isolate: S, H, R and E resistant
Format: cell-based, Mycobacterium tuberculosis
Conditions: 72 hours

Compound	% reduction in RLU (0.5 μg/mL) [%]	% reduction in RLU (5 μg/mL) [%]	% reduction in RLU (10 μg/mL) [%]
C=C(NC(=O)C(=C)NC(=O)c1csc(C2=NC3c4csc(n4)C4NC(=O)c5csc(n5)C(C(C)(O)C(C)O)NC(=O)C5CSC(=N5)/C(=C\C)NC(=O)C(C(C)O)NC(=O)c5csc(n5)C3(CC2)NC(=O)C(C)NC(=O)C(=C)NC(=O)C(C)NC(=O)C(C(C)C)NC2C=Cc3c(C(C)O)cc(nc3C2O)C(=O)OC4C)n1)C(N)=O (stereo not drawn) [Compound of Formula I(a)]	20.88	78.11	88.42
C=C(NC(=O)c1csc(C2=NC3c4csc(n4)C4NC(=O)c5csc(n5)C(C(C)(O)C(C)O)NC(=O)C5CSC(=N5)/C(=C\C)NC(=O)C(C(C)O)NC(=O)c5csc(n5)C3(CC2)NC(=O)C(C)NC(=O)C(=C)NC(=O)C(C)NC(=O)C(C(C)C)NC2C=Cc3c(C(C)O)cc(nc3C2O)C(=O)OC4C)n1)C(=O)NC(C)C(N)=O (stereo not drawn) [Compound of Formula I(b)]	5.67	70.9	83.74

Reference: patent US10501492B2, “Antibiotic compounds” (priority 2009, dated 2019)
